Biological target: T1, hM3Dq in Q-neurons (Homo sapiens, UniProt P20309, A239G/Y149C)
T1 construct: mCherry (C); expressed in transfected cells; host or cells: QRFP-producing (Q) neurons of Qrfp-iCre mice transduced in vivo with AAV10-EF1α-DIO-hM3Dq-mCherry
Experiment: Estimation of thermoregulatory parameters G, H and TR during CNO-induced QIH in Q-hM3D mice
Format: in vivo
Text: In order to record the core body temperature, oxygen consumption amount, EEG, ECG, and respiratory patterns, each animal was housed in a temperature controlled chamber (HC-100, Shin Factory or LP-400P-AR, Nippon Medical & Chemical Instruments Co., Ltd.). In order to continuously record the TB (intraperitoneal temperature), a telemetry temperature sensor (TA11TA-F10, DSI) was implanted into the animal's abdominal cavity under general inhalation anesthesia at least 7 days prior to the recording. The VO 2 and carbon dioxide discharge rate (VCO2) of the animal were continuously recorded using a respiratory gas analyzer (ARCO-2000 mass spectrometer, ARCO System). The respiratory quotient was calculated from the ratio of VCO2/VO2.
The Dreadd agonist CNO (clozapine N-oxide, Abcam, ab141704) was dissolved in physiological saline at a dose of 100 μg/mL, and the solution was frozen at −20° C. The CNO solution was thawed on site and then administered to each mouse intraperitoneally at a dose of 1 mg/kg. The adenosineAl receptor agonist CHA (N^6-cyclohexyl adenosine, Sigma-Aldrich, C9901) was dissolved in physiological saline at a concentration of 250 μg/mL, and the solution was administered intraperitoneally to each mouse at a dose of 2.5 mg/kg.
To evaluate the thermoregulatory system under QIH and normal conditions, the heat loss and heat production of the animals were described in a hierarchical multilayer model (FIG. 3c to FIG. 3k, code folder QIH_GTRH). Three parameters of G, TR and H under two metabolic conditions, that is, normal and QIH conditions, were estimated from a metabolically stable state of the animals at various TAs. The detailed method has been previously described^3. In summary, a linear model formed from the controllable parameter TA and the observable parameters TB and VO2 was fitted to the experimental results for both TB and VO2 using TA as a predictor having normal distribution noise. Next, G, TR, and H were estimated using the post-distribution of the slope and intercept coefficients for each model. […]

T1 sequence (P20309 whole entry Y149C/A239G, the tested form may be a part): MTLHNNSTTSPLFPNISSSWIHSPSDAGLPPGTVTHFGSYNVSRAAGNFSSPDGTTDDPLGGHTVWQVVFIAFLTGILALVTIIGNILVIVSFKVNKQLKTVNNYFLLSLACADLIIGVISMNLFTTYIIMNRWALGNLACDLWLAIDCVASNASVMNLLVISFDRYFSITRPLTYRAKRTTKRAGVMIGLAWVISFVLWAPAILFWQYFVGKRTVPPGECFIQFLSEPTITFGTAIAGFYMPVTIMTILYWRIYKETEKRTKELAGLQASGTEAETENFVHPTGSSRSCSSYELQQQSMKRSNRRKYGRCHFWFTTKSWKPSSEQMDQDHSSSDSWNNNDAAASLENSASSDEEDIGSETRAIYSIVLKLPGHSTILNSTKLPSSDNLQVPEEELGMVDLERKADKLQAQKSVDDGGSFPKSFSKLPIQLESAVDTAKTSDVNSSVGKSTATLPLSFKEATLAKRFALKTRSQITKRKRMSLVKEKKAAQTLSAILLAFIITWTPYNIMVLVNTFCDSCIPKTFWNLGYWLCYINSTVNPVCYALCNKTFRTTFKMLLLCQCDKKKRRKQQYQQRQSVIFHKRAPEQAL

In the case of `C[N+]1([O-])CCN(C2=Nc3cc(Cl)ccc3Nc3ccccc32)CC1` [CNO, clozapine N-oxide], the “reduction in H at each median” value (QIH versus normal state) was 95.3%, the “TB and VO2 versus control at every TA” value (eleven hours after IP injection, TA 8-32° C.) was “low TB and VO2” and the “difference in TR at each median” value (normal versus QIH) was 8.41 °C.

— patent US20220323761A1, “METHOD FOR INDUCING HIBERNATION-LIKE STATE AND DEVICE SAME” (University of Tsukuba, priority 2019, published 2022)
